Test results: US20250145665A1, “MACROCYCLIC PEPTIDES USEFUL AS MODULATORS OF TNF ALPHA” (Bristol-Myers Squibb Company, priority 2023, published 2025)
Starred links: 1 amine or outer side, 2 acyl side, 3 side chain; linkers in the order of their positions; H or OH if unused. Positions of bridges follow the written chain, without caps; N, C: chain ends. Non-standard residues stand in square brackets, D forms with d. Residues, ends and D or L forms follow the SMILES beside them. *: point of attachment. Bip(4'-NHCO-C6H4-3-CH2COOH) = N[C@@H](Cc1ccc(-c2ccc(NC(=O)c3cccc(CC(=O)O)c3)cc2)cc1)C(=O)O; Bip(4'-NHCO-C6H4-4-CH2COOH) = N[C@@H](Cc1ccc(-c2ccc(NC(=O)c3ccc(CC(=O)O)cc3)cc2)cc1)C(=O)O; X5 = Cn1nc(C(=O)Nc2ccc(-c3ccc(C[C@H](N[*:1])C(=O)[*:2])cc3)cc2)c2ccccc21; dArg(ω-(2S)-2,3-diOHpropyl) = N=C(NCCC[C@@H](N)C(=O)O)NC[C@H](O)CO; Bip(4'-NH) = O=C([C@H](Cc1ccc(-c2ccc(N[*:3])cc2)cc1)N[*:1])[*:2]; dArg(ω-Bn(3-CH2OH)) = N=C(NCCC[C@@H](N)C(=O)O)NCc1cccc(CO)c1; Indazole3carbonyl(1-CH2COOH) = O=C(O)Cn1nc(C(=O)*)c2ccccc21; X54 = N=C(NCCC[C@@H](N[*:1])C(=O)[*:2])NCc1cccc(-n2ccnc2)c1; Bip(4'-COOH) = N[C@@H](Cc1ccc(-c2ccc(C(=O)O)cc2)cc1)C(=O)O; X66 = N=C(NCCC[C@@H](N[*:1])C(=O)[*:2])NCc1ccc(F)c(F)c1; X7 = N=C(NCCC[C@@H](N[*:1])C(=O)[*:2])NCc1ccc2occc2c1; Ala(morpholin-4-yl) = N[C@@H](CN1CCOCC1)C(=O)O; Bip = N[C@@H](Cc1ccc(-c2ccccc2)cc1)C(=O)O; Cha = N[C@@H](CC1CCCCC1)C(=O)O; Tle = CC(C)(C)[C@H](N)C(=O)O; Sar = CNCC(=O)O

These compounds were tested against TNFα (Homo sapiens, UniProt P01375) (assay: TNF-Induced HEK-Blue Assay). Conditions: not given.
Format: cell-based

Chain of TNFα (P01375 77-233 limits assumed): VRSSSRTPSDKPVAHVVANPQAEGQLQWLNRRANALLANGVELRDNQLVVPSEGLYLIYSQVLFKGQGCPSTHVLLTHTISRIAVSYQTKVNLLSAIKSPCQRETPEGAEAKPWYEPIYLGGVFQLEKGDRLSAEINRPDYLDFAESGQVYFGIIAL

Row | Compound | IC50 [nM]
1 | CC(C)C[C@@H]1NC(=O)[C@H](CCCNC(=N)N)NC(=O)[C@H](C(C)C)NC(=O)[C@@H]2CCCN2C(=O)[C@H](C(C)C)NC(=O)[C@@H](CCCNC(=N)NC[C@H](O)CO)NC(=O)[C@H](CC(=O)O)NC(=O)[C@@H]2CCCN2C(=O)CN(C)C(=O)[C@H](Cc2ccc(-c3ccc(NC(=O)c4nn(CC(=O)O)c5ccccc45)cc3)cc2)NC(=O)[C@H](Cc2ccc(-c3ccccc3)cc2)NC(=O)[C@H](CN2CCOCC2)NC(=O)CSC[C@@H](C(=O)NCC(N)=O)NC1=O [Example 475] ({CH2CO}-[Ala(morpholin-4-yl)][Bip][Bip(4'-NH)](Indazole3carbonyl(1-CH2COOH))[Sar]PD[dArg(ω-(2S)-2,3-diOHpropyl)]VPVRLCG-NH2; thioether N-13) | < 50
2 | CC[C@H](C)[C@@H]1NC(=O)[C@@H](CCCNC(=N)NCc2cccc(CO)c2)NC(=O)[C@H](CC(=O)O)NC(=O)[C@H](Cc2cnc[nH]2)NC(=O)CN(C)C(=O)[C@H](Cc2ccc(-c3ccc(NC(=O)c4nn(CC(=O)O)c5ccccc45)cc3)cc2)NC(=O)[C@H](Cc2ccc(-c3ccccc3)cc2)NC(=O)[C@H](CC2CCCCC2)NC(=O)CSC[C@@H](C(=O)NCC(N)=O)NC(=O)[C@H](CC(C)C)NC(=O)[C@H](Cc2cnc[nH]2)NC(=O)[C@H](C(C)C)NC(=O)[C@@H]2CCCN2C1=O [Example 477] ({CH2CO}-[Cha][Bip][Bip(4'-NH)](Indazole3carbonyl(1-CH2COOH))[Sar]HD[dArg(ω-Bn(3-CH2OH))]IPVHLCG-NH2; thioether N-13) | < 50
3 | CC[C@H](C)[C@@H]1NC(=O)[C@@H](CCCNC(=N)NCc2ccc3occc3c2)NC(=O)[C@H](CC(=O)O)NC(=O)[C@H](Cc2cnc[nH]2)NC(=O)CN(C)C(=O)[C@H](Cc2ccc(-c3ccc(NC(=O)c4nn(CC(=O)O)c5ccccc45)cc3)cc2)NC(=O)[C@H](Cc2ccc(-c3ccccc3)cc2)NC(=O)[C@H](CC2CCCCC2)NC(=O)CSC[C@@H](C(=O)NCC(N)=O)NC(=O)[C@H](CC(C)C)NC(=O)[C@H](Cc2cnc[nH]2)NC(=O)[C@H](C(C)C)NC(=O)[C@@H]2CCCN2C1=O [Example 479] ({CH2CO}-[Cha][Bip][Bip(4'-NH)](Indazole3carbonyl(1-CH2COOH))[Sar]HD[X7]IPVHLCG-NH2; thioether N-13) | < 50

Same assay, conditions: HEK-Blue-CD40L cells, NF-kB-driven secreted alkaline phosphatase reporter; TNFα 0.5 ng/ml; 18 h; read-out: TNF induced HEK-Blue assay IC50 value

Row | Compound | IC50 [nM]
4 | CC(C)C[C@@H]1NC(=O)[C@H](CCCNC(=N)N)NC(=O)[C@H](C(C)C)NC(=O)[C@@H]2CCCN2C(=O)[C@H](C(C)C)NC(=O)[C@@H](CCCNC(=N)NCc2ccc(F)c(F)c2)NC(=O)[C@H](CC(=O)O)NC(=O)[C@@H]2CCCN2C(=O)CN(C)C(=O)[C@H](Cc2ccc(-c3ccc(NC(=O)c4nn(C)c5ccccc45)cc3)cc2)NC(=O)[C@H](Cc2ccc(-c3ccccc3)cc2)NC(=O)[C@H](CN2CCOCC2)NC(=O)CSC[C@@H](C(=O)NCC(N)=O)NC1=O [Example 473] ({CH2CO}-[Ala(morpholin-4-yl)][Bip][X5][Sar]PD[X66]VPVRLCG-NH2; thioether N-13) | < 50
5 | CC(C)C[C@@H]1NC(=O)[C@H](CCCNC(=N)N)NC(=O)[C@H](C(C)C)NC(=O)[C@@H]2CCCN2C(=O)[C@H](C(C)C)NC(=O)[C@@H](CCCNC(=N)NCc2cccc(-n3ccnc3)c2)NC(=O)[C@H](CC(=O)O)NC(=O)[C@@H]2CCCN2C(=O)CN(C)C(=O)[C@H](Cc2ccc(-c3ccc(NC(=O)c4nn(C)c5ccccc45)cc3)cc2)NC(=O)[C@H](Cc2ccc(-c3ccccc3)cc2)NC(=O)[C@H](CN2CCOCC2)NC(=O)CSC[C@@H](C(=O)NCC(N)=O)NC1=O [Example 474] ({CH2CO}-[Ala(morpholin-4-yl)][Bip][X5][Sar]PD[X54]VPVRLCG-NH2; thioether N-13) | 50 to 200
6 | CC(C)C[C@@H]1NC(=O)[C@H](CCCNC(=N)N)NC(=O)[C@H](C(C)C)NC(=O)[C@@H]2CCCN2C(=O)[C@H](C(C)C)NC(=O)[C@@H](CCCNC(=N)NC[C@H](O)CO)NC(=O)[C@H](CC(=O)O)NC(=O)[C@@H]2CCCN2C(=O)CN(C)C(=O)[C@H](Cc2ccc(-c3ccc(NC(=O)c4nn(C)c5ccccc45)cc3)cc2)NC(=O)[C@H](Cc2ccc(-c3ccccc3)cc2)NC(=O)[C@H](CN2CCOCC2)NC(=O)CSC[C@@H](C(=O)NCC(N)=O)NC1=O [Example 476] ({CH2CO}-[Ala(morpholin-4-yl)][Bip][X5][Sar]PD[dArg(ω-(2S)-2,3-diOHpropyl)]VPVRLCG-NH2; thioether N-13) | < 50
7 | CC[C@H](C)[C@@H]1NC(=O)[C@@H](CCCNC(=N)NCc2cccc(CO)c2)NC(=O)[C@H](CC(=O)O)NC(=O)[C@H](Cc2cnc[nH]2)NC(=O)CN(C)C(=O)[C@H](Cc2ccc(-c3ccc(NC(=O)c4nn(C)c5ccccc45)cc3)cc2)NC(=O)[C@H](Cc2ccc(-c3ccccc3)cc2)NC(=O)[C@H](CC2CCCCC2)NC(=O)CSC[C@@H](C(=O)NCC(N)=O)NC(=O)[C@H](CC(C)C)NC(=O)[C@H](Cc2cnc[nH]2)NC(=O)[C@H](C(C)C)NC(=O)[C@@H]2CCCN2C1=O [Example 478] ({CH2CO}-[Cha][Bip][X5][Sar]HD[dArg(ω-Bn(3-CH2OH))]IPVHLCG-NH2; thioether N-13) | 50 to 200

The next lines start with the values.

Row | IC50 [nM] | Compound
8 | < 50 | CC[C@H](C)[C@@H]1NC(=O)[C@@H](CCCNC(=N)N)NC(=O)[C@H](CC(=O)O)NC(=O)[C@H](Cc2cnc[nH]2)NC(=O)CN(C)C(=O)[C@H](Cc2ccc(-c3ccc(NC(=O)c4cccc(CC(=O)O)c4)cc3)cc2)NC(=O)[C@H](Cc2ccc(-c3ccccc3)cc2)NC(=O)[C@H](CN2CCOCC2)NC(=O)CSC[C@@H](C(=O)NCC(N)=O)NC(=O)[C@H](CC(C)C)NC(=O)[C@H](Cc2cnc[nH]2)NC(=O)[C@H](C(C)C)NC(=O)[C@@H]2CCCN2C1=O [Example 481] ({CH2CO}-[Ala(morpholin-4-yl)][Bip][Bip(4'-NHCO-C6H4-3-CH2COOH)][Sar]HD[dR]IPVHLCG-NH2; thioether N-13)
9 | < 50 | CC[C@H](C)[C@@H]1NC(=O)[C@@H](CCCNC(=N)N)NC(=O)[C@H](CC(=O)O)NC(=O)[C@H](Cc2cnc[nH]2)NC(=O)CN(C)C(=O)[C@H](Cc2ccc(-c3ccc(NC(=O)c4cccc(CC(=O)O)c4)cc3)cc2)NC(=O)[C@H](Cc2ccc(-c3ccc(C(=O)O)cc3)cc2)NC(=O)[C@H](C(C)(C)C)NC(=O)CSC[C@@H](C(=O)NCC(N)=O)NC(=O)[C@H](CC(C)C)NC(=O)[C@H](Cc2cnc[nH]2)NC(=O)[C@H](C(C)C)NC(=O)[C@@H]2CCCN2C1=O [Example 482] ({CH2CO}-[Tle][Bip(4'-COOH)][Bip(4'-NHCO-C6H4-3-CH2COOH)][Sar]HD[dR]IPVHLCG-NH2; thioether N-13)
10 | < 50 | CC[C@H](C)[C@@H]1NC(=O)[C@@H](CCCNC(=N)N)NC(=O)[C@H](CC(=O)O)NC(=O)[C@H](Cc2cnc[nH]2)NC(=O)CN(C)C(=O)[C@H](Cc2ccc(-c3ccc(NC(=O)c4ccc(CC(=O)O)cc4)cc3)cc2)NC(=O)[C@H](Cc2ccc(-c3ccccc3)cc2)NC(=O)[C@H](CN2CCOCC2)NC(=O)CSC[C@@H](C(=O)NCC(N)=O)NC(=O)[C@H](CC(C)C)NC(=O)[C@H](Cc2cnc[nH]2)NC(=O)[C@H](C(C)C)NC(=O)[C@@H]2CCCN2C1=O [Example 484] ({CH2CO}-[Ala(morpholin-4-yl)][Bip][Bip(4'-NHCO-C6H4-4-CH2COOH)][Sar]HD[dR]IPVHLCG-NH2; thioether N-13)
11 | < 50 | CC[C@H](C)[C@@H]1NC(=O)[C@@H](CCCNC(=N)N)NC(=O)[C@H](CC(=O)O)NC(=O)[C@H](Cc2cnc[nH]2)NC(=O)CN(C)C(=O)[C@H](Cc2ccc(-c3ccc(NC(=O)c4ccc(CC(=O)O)cc4)cc3)cc2)NC(=O)[C@H](Cc2ccc(-c3ccccc3)cc2)NC(=O)[C@H](C(C)(C)C)NC(=O)CSC[C@@H](C(=O)NCC(N)=O)NC(=O)[C@H](CC(C)C)NC(=O)[C@H](Cc2cnc[nH]2)NC(=O)[C@H](C(C)C)NC(=O)[C@@H]2CCCN2C1=O [Example 485] ({CH2CO}-[Tle][Bip][Bip(4'-NHCO-C6H4-4-CH2COOH)][Sar]HD[dR]IPVHLCG-NH2; thioether N-13)
12 | < 50 | CC[C@H](C)[C@@H]1NC(=O)[C@@H](CCCNC(=N)N)NC(=O)[C@H](CC(=O)O)NC(=O)[C@H](Cc2cnc[nH]2)NC(=O)CN(C)C(=O)[C@H](Cc2ccc(-c3ccc(NC(=O)c4ccc(CC(=O)O)cc4)cc3)cc2)NC(=O)[C@H](Cc2ccc(-c3ccc(C(=O)O)cc3)cc2)NC(=O)[C@H](C(C)(C)C)NC(=O)CSC[C@@H](C(=O)NCC(N)=O)NC(=O)[C@H](CC(C)C)NC(=O)[C@H](Cc2cnc[nH]2)NC(=O)[C@H](C(C)C)NC(=O)[C@@H]2CCCN2C1=O [Example 486] ({CH2CO}-[Tle][Bip(4'-COOH)][Bip(4'-NHCO-C6H4-4-CH2COOH)][Sar]HD[dR]IPVHLCG-NH2; thioether N-13)
13 | < 50 | CC[C@H](C)[C@@H]1NC(=O)[C@@H](CCCNC(=N)N)NC(=O)[C@H](CC(=O)O)NC(=O)[C@H](Cc2cnc[nH]2)NC(=O)CN(C)C(=O)[C@H](Cc2ccc(-c3ccc(NC(=O)c4ccc(CC(=O)O)cc4)cc3)cc2)NC(=O)[C@H](Cc2ccc(-c3ccc(C(=O)O)cc3)cc2)NC(=O)[C@H](CN2CCOCC2)NC(=O)CSC[C@@H](C(=O)NCC(N)=O)NC(=O)[C@H](CC(C)C)NC(=O)[C@H](Cc2cnc[nH]2)NC(=O)[C@H](C(C)C)NC(=O)[C@@H]2CCCN2C1=O [Example 487] ({CH2CO}-[Ala(morpholin-4-yl)][Bip(4'-COOH)][Bip(4'-NHCO-C6H4-4-CH2COOH)][Sar]HD[dR]IPVHLCG-NH2; thioether N-13)
14 | < 50 | CC[C@H](C)[C@@H]1NC(=O)[C@@H](CCCNC(=N)N)NC(=O)[C@H](CC(=O)O)NC(=O)[C@H](Cc2cnc[nH]2)NC(=O)CN(C)C(=O)[C@H](Cc2ccc(-c3ccc(NC(=O)c4ccc(CC(=O)O)cc4)cc3)cc2)NC(=O)[C@H](Cc2ccc(-c3ccc(C(=O)O)cc3)cc2)NC(=O)[C@H](CC2CCCCC2)NC(=O)CSC[C@@H](C(=O)NCC(N)=O)NC(=O)[C@H](CC(C)C)NC(=O)[C@H](Cc2cnc[nH]2)NC(=O)[C@H](C(C)C)NC(=O)[C@@H]2CCCN2C1=O [Example 488] ({CH2CO}-[Cha][Bip(4'-COOH)][Bip(4'-NHCO-C6H4-4-CH2COOH)][Sar]HD[dR]IPVHLCG-NH2; thioether N-13)
